The text below walks through data of patent publication US20170079966A1, “INHIBITION OF TUMOR CELL INTERACTIONS WITH THE MICROENVIRONMENT RESULTING IN A REDUCTION IN TUMOR GROWTH AND DISEASE PROGRESSION” (Deciphera Pharmaceuticals, LLC, priority 2014, published 2017).

In test [1] the target is T1, TIE2 (Homo sapiens, UniProt Q02763). The experiment in a line: HUVEC Phospho-TIE2 Western Blot Assay. The following applies: 4 hours compound; 800 ng/mL ANG1 complex 15 minutes; read-out: IC50, ANG1-stimulated phospho-TIE2 in HUVECs. It is filed as cell-based. Also noted: host or cells: HUVEC. The method, then:
HUVEC cells (2.5×10^5 cells/well) were added to a 24-well tissue-culture treated plate in 1 mL of EGM-2 culture medium (Lonza, Walkersville, Md.). Cells were then incubated overnight at 37 degrees Celsius, 5% CO2, and 95% humidity. Media was then aspirated and 1 mL EBM-2 basal medium (Lonza, Walkersville, Md.) supplemented with 2% FBS (Invitrogen, Carlsbad, Calif.) was added. […] The plates were then incubated for 4 hours at 37 degrees Celsius, 5% CO2, and 95% humidity. During the incubation, histidine-tagged angiopoietin 1 (ANG1) growth factor (R&D Systems, Minneapolis, Minn.) was added to an anti-polyhistidine antibody (R&D Systems, Minneapolis, Minn.) for 30 minutes at room temperature to generate multimers of ANG1. […] The media was aspirated and the cells were washed with PBS. The cells were lysed using MPER lysis buffer (Pierce, Rockford, Ill.) containing Halt Phosphatase and Protease Inhibitors (Pierce, Rockford, Ill.) and Phosphatase inhibitor cocktail 2 (Sigma, St. Louis, Mo.) at 4° C. for 10 minutes with shaking. […] Fluorescence was detected using a Storm 840 phosphorimager (GE Healthcare, Piscataway, N.J.) in fluorescence mode. The 160 kDa phospho-TIE2 band was quantified using ImageQuant software (GE Healthcare, Piscataway, N.J.). Data was analyzed using Prism software (GraphPad Software, San Diego, Calif.) to calculate the IC50 value.
In general terms: In western blotting, separated proteins are transferred to a membrane and probed.
Target sequence in this assay (Q02763 23-1124): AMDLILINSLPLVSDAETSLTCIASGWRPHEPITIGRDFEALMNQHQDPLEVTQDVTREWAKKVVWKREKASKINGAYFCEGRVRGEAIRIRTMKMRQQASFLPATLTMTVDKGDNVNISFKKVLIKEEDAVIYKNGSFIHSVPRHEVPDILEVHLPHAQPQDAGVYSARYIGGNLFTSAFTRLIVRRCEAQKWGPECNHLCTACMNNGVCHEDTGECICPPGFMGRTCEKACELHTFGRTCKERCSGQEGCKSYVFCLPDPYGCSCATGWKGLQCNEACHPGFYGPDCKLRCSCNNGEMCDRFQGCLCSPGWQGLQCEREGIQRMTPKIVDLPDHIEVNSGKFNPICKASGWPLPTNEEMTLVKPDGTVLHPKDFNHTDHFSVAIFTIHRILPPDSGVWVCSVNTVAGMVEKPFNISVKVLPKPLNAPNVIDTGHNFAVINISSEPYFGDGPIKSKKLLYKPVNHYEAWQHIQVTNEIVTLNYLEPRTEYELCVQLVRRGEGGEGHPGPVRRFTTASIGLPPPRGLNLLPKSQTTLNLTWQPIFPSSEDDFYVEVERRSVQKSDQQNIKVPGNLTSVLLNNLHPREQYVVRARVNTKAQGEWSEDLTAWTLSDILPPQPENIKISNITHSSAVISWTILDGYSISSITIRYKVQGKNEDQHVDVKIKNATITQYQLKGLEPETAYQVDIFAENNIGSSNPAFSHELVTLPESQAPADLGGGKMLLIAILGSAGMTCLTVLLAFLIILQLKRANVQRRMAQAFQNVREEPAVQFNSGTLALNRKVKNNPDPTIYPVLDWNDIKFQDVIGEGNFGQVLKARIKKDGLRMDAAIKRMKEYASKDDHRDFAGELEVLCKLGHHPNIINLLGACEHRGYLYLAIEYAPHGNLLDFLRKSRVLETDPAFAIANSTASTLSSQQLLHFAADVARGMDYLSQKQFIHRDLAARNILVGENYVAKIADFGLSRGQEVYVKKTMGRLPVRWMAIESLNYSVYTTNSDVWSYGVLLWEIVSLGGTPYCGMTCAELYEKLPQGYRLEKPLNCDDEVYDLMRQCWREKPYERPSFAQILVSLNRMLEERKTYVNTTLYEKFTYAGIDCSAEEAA

Test [2] concerns the target T1, TIE2. The experiment in a line: Phospho-TIE2 Western blot in TIE2 expressing CHO-K1 cells. It is filed as cell-based. Also on record: expressed in transfected cells; host or cells: CHO-K1 (ATCC CCL-61), transient transfection. The settings on record: CHO cells transiently expressing TIE2; 4 hours; read-out: IC50, inhibiting the constitutive phosphorylation of TIE2. As to the method: Briefly, cells were grown in F12K medium supplemented with 10% characterized fetal bovine serum (Invitrogen, Carlsbad, Calif.), 100 units/mL penicillin G, 100 μg/ml streptomycin, and 0.29 mg/mL L-glutamine (Invitrogen, Carlsbad, Calif.) at 37 degrees Celsius, 5% CO2, and 95% humidity.
CHO K1 cells (1×10^5 cells/well) were added to a 24-well tissue-culture treated plate in 1 mL of RPMI1640 medium supplemented with 10% characterized fetal bovine serum and 1× non-essential amino acids (Invitrogen, Carlsbad, Calif.). Cells were then incubated overnight at 37 degrees Celsius, 5% CO2, and 95% humidity. Medium was aspirated, and 0.5 mL of medium was added to each well. Transfection-grade plasmid DNA (TIE2 gene Gateway cloned into pcDNA3.2™/V5-DEST expression vector, Invitrogen, Carlsbad, Calif.) was diluted to 5 μg/mL in room temperature Opti-MEM® I Medium without serum (Invitrogen, Carlsbad, Calif.). Two μL of Lipofectamine LTX Reagent (Invitrogen, Carlsbad, Calif.) was added per 0.5 μg of plasmid DNA. […] Fluorescence was detected using a Storm 840 phosphorimager (GE Healthcare, Piscataway, N.J.) in fluorescence mode. […] The 160 kDa phospho-TIE2 and total TIE2 bands were quantified using ImageQuant software (GE Healthcare, Piscataway, N.J.), and data was plotted using Prism software (GraphPad Software, San Diego, Calif.).
Target sequence in this assay (Q02763 23-1124, species assumed): as the sequence (Q02763 23-1124) above

For test [3], the system named is circulating TIE2+ and TIE2+/MET+ monocytes. The experiment in a line: Flow cytometry of circulating TIE2/MET-expressing monocytes from U87-MG xenograft model. The settings on record: single agents; after five weeks of treatment. It is filed as in vivo, mice. As to the method:
Flow cytometry of circulating TIE2/MET-expressing monocytes from U87-MG xenograft model. Peripheral blood samples were fixed using Lyse/Fix buffer (BD Biosciences, San Jose, Calif.). BD Fc Block was added and cells were stained with CD11b-PECy7 and Gr1-APC antibodies (BD Pharmingen), and TIE2-PE and MET-FITC antibodies (eBioscience) or isotype controls. Data was collected on an Accuri C6 cytometer. Monocytes were gated using side and forward scatter.
To monitor these monocytes in the U87 survival model, peripheral monocytes were gated on CD11b+/Grl-surface markers and TIE2^+ and/or TIE2^+/MET^+ cells quantitated. In the U87 glioma survival study, we observed both of these TIE2^+ expressing monocyte populations in the circulation of vehicle-treated mice after five weeks of treatment. […] The lowered population of both of these TIE2^+ monocyte populations in the combination cohort was consistent with greater survival benefit (FIG. 6).
On the technique in general: A flow cytometer gives signals particle by particle.

For `O=C(Nc1cc(Oc2cc(F)c(NC(=O)C3(C(=O)Nc4ccc(F)cc4)CC3)cc2F)ccn1)C1CC1` [Compound 1, N-(4-(2-(cyclopropanecarboxamido)pyridin-4-yloxy)-2,5-difluorophenyl)-N′-(4-fluorophenyl)cyclopropane-1,1-dicarboxamide], the results for the IC50 in test [1] and in test [2] were 1 nM and 2.4 nM, respectively. Also, the “Numbers of circulating TIE2+ and TIE2+/MET+ monocyte populations” value in test [3] was “did not alter”.
